Experimental data published in patent US20030040531A1, “Remedies for reperfusion injury containing integrin alphanubeta 3 antagonist” (priority 2000, published 2003).

Assays:
integrin αvβ3 = integrin αvβ3 (Homo sapiens, UniProt P05106+P06756); assay: integrin αvβ3 binding assay (Pharmacological Example 1 in WO 99/38849)
From the text: Whether or not a compound has integrin αvβ3 antagonistic activity may be determined by assaying the antagonistic action by integrin αvβ3 binding assay as described, for example, in Pharmacological Test Example 1 in WO 99/38849.

platelet aggregation [1] = assay: inhibition of platelet aggregation, human; type: cell-based; settings: read-out: concentration (IC50) necessary for inhibition of platelet aggregation
platelet aggregation [2] = assay: inhibition of platelet aggregation, rat; type: cell-based; settings: read-out: concentration (IC50) necessary for inhibition of platelet aggregation
[3] = system: rat vascular smooth muscle cells; assay: adhesion of rat vascular smooth muscle cells to rat vitronectin; type: cell-based; settings: read-out: concentration (IC50) necessary for inhibition of adhesion to vitronectin
Experimental: (§1) The adhesion of vascular smooth muscle cells to immobilized human vitronectin was measured in accordance with the method of Liaw et al. (L. Liaw et al., Circ. Res., 74, 214 (1994)). A Dulbecco's phosphate buffer (Dulbecco's PBS(−)) solution of human serum-derived vitronectin adjusted to a concentration of 4 μg/ml was first added to wells (50 μl/well) of a microplate (Maxisorp), and a reaction for immobilization was allowed to proceed at 4° C. overnight. After washing twice with 150 μl of Dulbecco's PBS (−), Dulbecco's PBS (−) containing 10 mg/ml of bovine serum albumin was added, followed by blocking at 37° C. for one hr. The microplate was then washed twice with 150 μl of Dulbecco's PBS (−) to prepare an assay plate.
(§2) Next, 50 μl of a Dulbecco's modified Eagle's basal medium containing 20 mg/ml of bovine serum albumin with a medicament added thereto was added to the wells of the human vitronectin-coated assay microplate, followed by pre-cultivation under 5% carbon dioxide at 37° C. for 10 min. Thereafter, 50 μl of the Dulbecco's modified Eagle's basal medium with human vascular smooth muscle cells suspended therein was added thereto, and the plate was thoroughly stirred. A reaction was allowed to proceed under 5% carbon dioxide at 37° C. for 90 min. The reaction solution containing non-adherent cells was then removed, followed by washing three times with Dulbecco's PBS (−). For the adhered cells, 100 μl of Dulbecco's PBS (−) containing 4% paraformaldehyde was added, and immobilization was allowed to proceed at room temperature for 10 min. Next, 100 μl of a Dulbecco's PBS (−) containing 0.5% Toluidine Blue and 4% paraformaldehyde was added, and staining was allowed to proceed at room temperature for 5 min, followed by thorough washing with distilled water. The inside of the wells was then air-dried, and 1% aqueous sodium dodecylsulfate solution was then added to perform cytolysis. The absorbance of the microplate thus obtained was measured at 595 nm. […] The inhibition was calculated by the following equation. IC50 was determined from a primary regression line of the logarithm of each concentration of the test compound and the logarithm of (100−inhibition)/inhibition. [formula]
(§3) Rat vascular smooth muscle cells were cultivated in a medium composed of a mixture of equal amounts of 15% fetal calf serum-containing 199 medium and RPMI 1640 medium. Separately, hamster and dog vascular smooth muscle cells were cultivated in a 10% fetal calf serum-containing Dulbecco's modified Eagle's basal medium. These cultivated cells were then suspended in a Dulbecco's modified Eagle's basal medium to concentrations of 3×10^5 cells/ml (rat), 3×10^5 cells/ml (hamster), and 4×10^5 cells /ml (dog), respectively. Rat vitronectin was used in the adhesion system of rats and hamsters, while bovine vitronectin was used in the adhesion system of dogs.

[4] = system: rat acute myocardial ischemia-reperfusion model; assay: rat acute myocardial ischemia-reperfusion model; type: in vivo; settings: for myocardial infarct size (proportion of the infarct area in the left ventricle): average value±SE; for influence on the blood pressure and the heart rate: doses at which the infarct inhibition action could be obtained
Experimental: Male Wistar rats (330 to 420 g) were subjected to controlled respiration using an artificial respirator under pentobarbital anesthesia (60 mg/kg, i.p.), and the blood pressure and the heart rate were measured through a blood pressure amplifier and a heart rate unit. Further, for the ischemia of the myocardium, an increase in voltage of R-wave in the II leading in an electrocardiogram was confirmed with a monitor through a bioelectricity amplifier. The rats underwent thoracotomy, and the coronary artery, together with the myocardium, was then occluded using a suture with a needle. Ischemia for 3 min and reperfusion for 5 min were followed by ischemia for 45 min and reperfusion for 45 min. Medicaments tested and concentrations thereof were 3 mg/kg+3 mg/kg/hr (bolus +infusion) (L; low dose group) and 6 mg/kg+3 mg/kg/hr (bolus +infusion) (H; high dose group) for the compound represented by formula (V); 3 mg/kg+3 mg/kg/hr (bolus +infusion) for the compound represented by formula (VI); 3 mg/kg+3 mg/kg/hr (bolus +infusion) (L; low dose group) and 6 mg/kg+3 mg/kg/hr (bolus +infusion) (H; high dose group) for the compound represented by formula (IV); 5 mg/kg+5 mg/kg/hr(bolus +infusion)(L; low dose group) and 10 mg/kg+10 mg/kg/hr (bolus +infusion) (H; high dose group) for the compound represented by formula (VII); and 1 mg/kg+1 mg/kg/hr (bolus+infusion) (L; low dose group) and 6 mg/kg+6 mg/kg/hr (bolus+infusion) (H; high dose group) for the compound represented by formula (VIII). For a control group (group C), a 10% (v/v) dimethyl sulfoxide/5% glucose solution was administered, and each medicament was dissolved in the same solvent. The dose volume was 3 ml/kg+3 ml/kg/h (bolus+infusion). The medicament was continuously administered through an infusion pump for the period starting with one min before the ischemia and ending with the completion of the experiment. After reperfusion for 45 min, the rats were slaughtered by excessive administration of pentobarbital, and the heart was removed. After perfusion with a Ringer solution, perfusion staining was carried out with 1.5% triphenyltetrazolium chloride, and the proportion of the infarct area in the left ventricle was quantitatively determined. For animals used in the experiment, each group consisted of 5 rats.

[5] = system: human vascular smooth muscle cells; assay: adhesion of human vascular smooth muscle cells to immobilized human vitronectin; type: cell-based; settings: read-out: concentration (IC50) necessary for inhibition of adhesion to vitronectin
Experimental: as §1
Separately, human vascular smooth muscle cells cultivated at 37° C. under 5% carbon dioxide in a medium for vascular smooth muscle cells were separated using a Dulbecco's PBS (−) containing trypsin-EDTA, were washed with Dulbecco's PBS (−), and were then suspended in a Dulbecco's modified Eagle's basal medium to a concentration of 2×10^5/ml.
as §2

[6] = system: dog vascular smooth muscle cells; assay: adhesion of dog vascular smooth muscle cells to bovine vitronectin; type: cell-based; settings: Canis lupus familiaris, read-out: concentration (IC50) necessary for inhibition of adhesion to vitronectin
Experimental: as §1, §2, §3

platelet aggregation [7] = assay: inhibition of platelet aggregation, dog; type: cell-based; settings: Canis lupus familiaris, read-out: concentration (IC50) necessary for inhibition of platelet aggregation
[8] = 3 mg/kg+3 mg/kg/hr (bolus+infusion)
[9] = 3 mg/kg+3 mg/kg/hr (bolus+infusion), n=5

Sequence of integrin αvβ3 (P06756 31-1048): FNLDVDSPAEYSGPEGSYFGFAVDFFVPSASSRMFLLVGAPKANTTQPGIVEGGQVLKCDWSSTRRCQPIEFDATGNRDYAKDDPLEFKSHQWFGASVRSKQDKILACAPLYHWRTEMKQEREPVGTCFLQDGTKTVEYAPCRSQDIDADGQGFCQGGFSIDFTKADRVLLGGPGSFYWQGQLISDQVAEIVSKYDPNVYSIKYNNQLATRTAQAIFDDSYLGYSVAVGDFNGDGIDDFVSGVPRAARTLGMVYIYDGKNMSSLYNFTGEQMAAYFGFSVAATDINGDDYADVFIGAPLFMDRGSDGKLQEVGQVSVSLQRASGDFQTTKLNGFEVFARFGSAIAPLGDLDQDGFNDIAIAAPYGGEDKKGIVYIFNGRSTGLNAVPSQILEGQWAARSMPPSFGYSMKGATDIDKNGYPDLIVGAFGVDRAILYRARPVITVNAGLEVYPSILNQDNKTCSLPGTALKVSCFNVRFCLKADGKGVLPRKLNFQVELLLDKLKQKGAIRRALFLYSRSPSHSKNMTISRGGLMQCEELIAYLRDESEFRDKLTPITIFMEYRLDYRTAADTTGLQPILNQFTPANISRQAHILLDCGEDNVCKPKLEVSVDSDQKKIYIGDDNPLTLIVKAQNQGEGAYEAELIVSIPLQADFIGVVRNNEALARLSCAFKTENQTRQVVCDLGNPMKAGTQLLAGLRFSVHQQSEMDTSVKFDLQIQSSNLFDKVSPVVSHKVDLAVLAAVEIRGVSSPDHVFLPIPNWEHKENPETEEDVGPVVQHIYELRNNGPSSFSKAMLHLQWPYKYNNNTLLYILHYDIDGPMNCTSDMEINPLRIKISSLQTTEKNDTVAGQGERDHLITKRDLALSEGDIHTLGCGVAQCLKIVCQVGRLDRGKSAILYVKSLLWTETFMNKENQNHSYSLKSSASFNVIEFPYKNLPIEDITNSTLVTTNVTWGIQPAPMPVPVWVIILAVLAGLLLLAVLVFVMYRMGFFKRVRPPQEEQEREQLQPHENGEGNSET
Sequence of integrin αvβ3 (P05106 27-788): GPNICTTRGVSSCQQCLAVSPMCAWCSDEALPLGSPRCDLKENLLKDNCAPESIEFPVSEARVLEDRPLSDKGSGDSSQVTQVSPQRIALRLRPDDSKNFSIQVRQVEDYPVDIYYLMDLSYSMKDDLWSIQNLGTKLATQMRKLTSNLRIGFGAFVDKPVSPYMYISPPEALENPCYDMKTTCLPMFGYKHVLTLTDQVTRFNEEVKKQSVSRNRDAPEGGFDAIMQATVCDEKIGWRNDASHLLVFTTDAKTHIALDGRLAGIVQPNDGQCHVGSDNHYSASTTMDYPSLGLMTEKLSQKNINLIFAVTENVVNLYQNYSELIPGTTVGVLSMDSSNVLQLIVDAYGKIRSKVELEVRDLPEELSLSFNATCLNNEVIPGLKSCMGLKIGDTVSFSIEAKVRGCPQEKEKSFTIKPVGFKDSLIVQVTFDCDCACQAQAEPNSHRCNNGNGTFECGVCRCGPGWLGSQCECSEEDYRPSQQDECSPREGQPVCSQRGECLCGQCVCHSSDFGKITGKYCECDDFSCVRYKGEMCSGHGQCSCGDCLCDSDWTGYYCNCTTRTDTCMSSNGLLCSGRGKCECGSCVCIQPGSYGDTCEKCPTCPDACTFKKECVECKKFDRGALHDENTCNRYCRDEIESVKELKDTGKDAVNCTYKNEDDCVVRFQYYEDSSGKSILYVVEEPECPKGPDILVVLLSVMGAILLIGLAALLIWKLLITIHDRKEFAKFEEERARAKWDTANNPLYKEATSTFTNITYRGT

O=C(NCC(NS(=O)(=O)c1ccccc1)C(=O)O)c1ccc(N2CCC(NC3=NCCCN3)CC2)cc1 (stereo in doubt) [formula (V), (2S)-Benzenesulfonylamino-3-[4-{4-(1,4,5,6-tetrahydropyrimidin-2-ylamino)piperidin-1-yl}-benzoylamino]propionic Acid]
IC50 (integrin αvβ3): 1.2 nM | IC50 (platelet aggregation [1]): 63 nM | IC50 (platelet aggregation [2]): 13000 nM | IC50 [3]: 800 nM | reduction of myocardial infarct size as compared with group C [4, 8]: 16.1% | myocardial infarct size (proportion of the infarct area in the left ventricle) [4, 9]: 39.0±1.7% | reduction of myocardial infarct size as compared with group C ([4]; 6 mg/kg+3 mg/kg/hr (bolus+infusion), group H): 35.5% | myocardial infarct size (proportion of the infarct area in the left ventricle) ([4]; 6 mg/kg+3 mg/kg/hr (bolus+infusion), group H, n=5): 30.0±1.6% | influence on the blood pressure and the heart rate [4]: no influence | IC50 [5]: 190 nM

O=C(NCC(NS(=O)(=O)c1ccccc1)C(=O)O)c1ccc(OCCNC2=NCCCN2)cc1 (stereo in doubt) [formula (VI), 4-[2-(3,4,5,6-Tetrahydropyrimidin-2-ylamino)ethyloxy]benzoyl-2(S)-phenylsulfonylamino-β-alanine]
IC50 (integrin αvβ3): 0.39 nM | IC50 (platelet aggregation [1]): 180 nM | IC50 (platelet aggregation [2]): > 100000 nM | IC50 [3]: 450 nM | reduction of myocardial infarct size as compared with group C [4, 8]: 34.8% | myocardial infarct size (proportion of the infarct area in the left ventricle) [4, 9]: 30.3±6.1% | influence on the blood pressure and the heart rate [4]: no influence | IC50 [5]: 72 nM

COc1cc(C(=O)NCC(NS(=O)(=O)c2ccccc2)C(=O)O)ccc1N1CCC(NC2=NCCCN2)CC1 (stereo in doubt) [formula (VIII), (2S)-Benzenesulfonylamino-3-[3-methoxy-4-{4-(1,4,5,6-tetrahydropyrimidin-2-ylamino)-piperidin-1-yl}benzoylamino]propionic Acid]
IC50 (integrin αvβ3): 0.14 nM | IC50 (platelet aggregation [1]): 130 nM | IC50 [3]: 760 nM | IC50 [6]: 28 nM | reduction of myocardial infarct size as compared with group C ([4]; 1 mg/kg+1 mg/kg/hr (bolus+infusion), group L): 24.2% | myocardial infarct size (proportion of the infarct area in the left ventricle) ([4]; 1 mg/kg+1 mg/kg/hr (bolus+infusion), group L, n=5, group C 36.0±1.9%): 27.3±5.2% | reduction of myocardial infarct size as compared with group C ([4]; 6 mg/kg+6 mg/kg/hr (bolus+infusion), group H): 32.5% | myocardial infarct size (proportion of the infarct area in the left ventricle) ([4]; 6 mg/kg+6 mg/kg/hr (bolus+infusion), group H, n=5, group C 36.0±1.9%): 24.3±3.8% | influence on the blood pressure and the heart rate [4]: no influence | IC50 [5]: 130 nM | IC50 (platelet aggregation [7]): 56 nM

O=C(NC[C@@H](NS(=O)(=O)c1ccccc1)C(=O)O)c1ccc(N2CCCC(NC3=NCCCN3)C2)cc1 (stereo partly drawn) [formula (IX), (2S)-Benzenesulfonylamino-3-[4-{(3S)-(1,4,5,6-tetrahydropyrimidin-2-ylamino)piperidin-1-yl}benzoylamino]propionic Acid]
IC50 (integrin αvβ3): 0.53 nM | IC50 (platelet aggregation [1]): 56 nM | IC50 [3]: 96 nM | IC50 [6]: 11 nM | IC50 [5]: 28 nM | IC50 (platelet aggregation [7]): 59 nM

O=C(NC[C@H](NS(=O)(=O)c1ccc(O)cc1)C(=O)O)c1ccc(N2CCC(NC3=NCCCN3)CC2)c(F)c1 [formula (VII), 3-[3-Fluoro-4-{4-(1,4,5,6-tetrahydropyrimidin-2-ylamino)piperidin-1-yl}benzoylamino]-(2S)-{(4-hydroxybenzenesulfonyl)amino}propionic Acid]
IC50 (integrin αvβ3): 0.066 nM | IC50 (platelet aggregation [1]): 230 nM | IC50 (platelet aggregation [2]): > 100000 nM | IC50 [3]: 640 nM | IC50 [6]: 18 nM | reduction of myocardial infarct size as compared with group C ([4]; 5 mg/kg+5 mg/kg/hr (bolus+infusion), group L): 24.5% | myocardial infarct size (proportion of the infarct area in the left ventricle) ([4]; 5 mg/kg+5 mg/kg/hr (bolus+infusion), group L, n=5, group C 38.8±[…]): 29.3±1.7% | reduction of myocardial infarct size as compared with group C ([4]; 10 mg/kg+10 mg/kg/hr (bolus+infusion), group H): 41.5% | myocardial infarct size (proportion of the infarct area in the left ventricle) ([4]; 10 mg/kg+10 mg/kg/hr (bolus+infusion), group H, n=5, group C 38.8±[…]): 22.7±3.8% | influence on the blood pressure and the heart rate [4]: no influence | IC50 [5]: 69 nM | IC50 (platelet aggregation [7]): 190 nM

O=C(NC[C@@H](NS(=O)(=O)c1ccccc1)C(=O)O)c1ccc(N2CCCC(NC3=NCCCN3)C2)cc1F (stereo partly drawn) [formula (X), (2S)-Benzenesulfonylamino-3-[2-fluoro-4-{(3S)-(1,4,5,6-tetrahydropyrimidin-2-ylamino)-piperidin-1-yl}benzoylamino]propionic Acid]
IC50 (integrin αvβ3): 0.16 nM | IC50 (platelet aggregation [1]): 410 nM | IC50 [3]: 96 nM | IC50 [6]: 9.7 nM | IC50 [5]: 13 nM | IC50 (platelet aggregation [7]): 110 nM

O=C(NC[C@@H](NS(=O)(=O)c1cccs1)C(=O)O)c1ccc(N2CCCC(NC3=NCCCN3)C2)cc1 (stereo partly drawn) [formula (XI), 3-[4-{(3S)-(1,4,5,6-Tetrahydropyrimidin-2-ylamino)piperidin-1-yl}benzoylamino]-(2S)-{(thiophene-2-sulfonyl)amino}propionic Acid]
IC50 (integrin αvβ3): 0.14 nM | IC50 (platelet aggregation [1]): 95 nM | IC50 [5]: 24 nM
